From ChEMBL document CHEMBL4229418, “Design, synthesis and pharmacology of aortic-selective acyl-CoA: Cholesterol O-acyltransferase (ACAT/SOAT) inhibitors” (Bioorg Med Chem, 2018)
≈ marks a conversion by molar mass, not a printed value.

Tests used:
Hamster [1] = assay: Antiatherosclerotic activity in Bio F1B hamster model of diet-induced atherosclerosis assessed as liver free cholesterol level at 3 mg/kg/day added to chow pellets (reference value: 7.94 mg/dl); assay type: functional, Cricetinae
Hamster [2] = assay: Effect on lipid composition in Bio F1B hamster model of diet-induced atherosclerosis assessed as adrenal total cholesterol level at 3 mg/kg/day added to chow pellets (reference value: 10.54 mg/dl); assay type: functional, Cricetinae
Hamster [3] = assay: Antiatherosclerotic activity in Bio F1B hamster model of diet-induced atherosclerosis assessed as intestinal free cholesterol level at 3 mg/kg/day added to chow pellets (reference value: 3.41 mg/dl); assay type: functional, Cricetinae
Hamster [4] = assay: Effect on lipid composition in Bio F1B hamster model of diet-induced atherosclerosis assessed as liver total cholesterol level at 3 mg/kg/day added to chow pellets (reference value: 31.99 mg/dl); assay type: functional, Cricetinae
Hamster [5] = assay: Effect on lipid composition in Bio F1B hamster model of diet-induced atherosclerosis assessed as intestine total cholesterol level at 30 mg/kg/day added to chow pellets (reference value: 4.51 mg/dl); assay type: functional, Cricetinae
Hamster [6] = assay: Antiatherosclerotic activity in Bio F1B hamster model of diet-induced atherosclerosis assessed as plasma free cholesterol level at 3 mg/kg/day added to chow pellets (reference value: 780.8 mg/dl); assay type: functional, Cricetinae
[7] = Solubility of the compound in pH 1.2 solution; assay type: physicochemical; settings: buffer
Hamster [8] = assay: Antiatherosclerotic activity in Bio F1B hamster model of diet-induced atherosclerosis assessed as liver cholesterol ester level at 10 mg/kg/day added to chow pellets (reference value: 24.04 mg/dl); assay type: functional, Cricetinae
[9] = AUC (0 to 8 hrs) in non-fasted Sprague-Dawley rat at 30 mg/kg, po by LC-MS/MS analysis; assay type: ADME, organism-based; set-up: dose 30 mg/kg, time < 8 hr, route oral; settings: in vivo
Hamster [10] = assay: Antiatherosclerotic activity in Bio F1B hamster model of diet-induced atherosclerosis assessed as liver cholesterol ester level at 3 mg/kg/day added to chow pellets (reference value: 24.04 mg/dl); assay type: functional, Cricetinae
Hamster [11] = assay: Antiatherosclerotic activity in Bio F1B hamster model of diet-induced atherosclerosis assessed as liver free cholesterol level at 30 mg/kg/day added to chow pellets (reference value: 7.94 mg/dl); assay type: functional, Cricetinae
[12] = Tmax in non-fasted Beagle dog at 30 mg/kg, po by LC-MS/MS analysis; assay type: ADME, organism-based, Canis lupus familiaris; settings: in vivo
Hamster [13] = assay: Antiatherosclerotic activity in Bio F1B hamster model of diet-induced atherosclerosis assessed as adrenal cholesterol ester level at 30 mg/kg/day added to chow pellets (reference value: 5.88 mg/dl); assay type: functional, Cricetinae
[14] = Cmax in non-fasted Sprague-Dawley rat at 30 mg/kg, po by LC-MS/MS analysis; assay type: ADME, organism-based; set-up: dose 30 mg/kg, route oral; settings: in vivo
Hamster [15] = assay: Effect on lipid composition in Bio F1B hamster model of diet-induced atherosclerosis assessed as intestine total cholesterol level at 1 mg/kg/day added to chow pellets (reference value: 4.51 mg/dl); assay type: functional, Cricetinae
Hamster [16] = assay: Antiatherosclerotic activity in Bio F1B hamster model of diet-induced atherosclerosis assessed as liver cholesterol ester level at 1 mg/kg/day added to chow pellets (reference value: 24.04 mg/dl); assay type: functional, Cricetinae
Hamster [17] = assay: Effect on lipid composition in Bio F1B hamster model of diet-induced atherosclerosis assessed as liver total cholesterol level at 10 mg/kg/day added to chow pellets (reference value: 31.99 mg/dl); assay type: functional, Cricetinae
Hamster [18] = assay: Effect on lipid composition in Bio F1B hamster model of diet-induced atherosclerosis assessed as adrenal total cholesterol level at 1 mg/kg/day added to chow pellets (reference value: 10.54 mg/dl); assay type: functional, Cricetinae
Hamster [19] = assay: Antiatherosclerotic activity in Bio F1B hamster model of diet-induced atherosclerosis assessed as intestinal cholesterol ester level at 3 mg/kg/day added to chow pellets (reference value: 1.09 mg/dl); assay type: functional, Cricetinae
[20] = Tmax in fasted Beagle dog at 30 mg/kg, po by LC-MS/MS analysis; assay type: ADME, organism-based, Canis lupus familiaris; settings: in vivo
Hamster [21] = assay: Antiatherosclerotic activity in Bio F1B hamster model of diet-induced atherosclerosis assessed as plasma cholesterol ester level at 10 mg/kg/day added to chow pellets (reference value: 1379.3 mg/dl); assay type: functional, Cricetinae
Hamster [22] = assay: Effect on lipid composition in Bio F1B hamster model of diet-induced atherosclerosis assessed as intestine total cholesterol level at 3 mg/kg/day added to chow pellets (reference value: 4.51 mg/dl); assay type: functional, Cricetinae
Hamster [23] = assay: Antiatherosclerotic activity in Bio F1B hamster model of diet-induced atherosclerosis assessed as plasma cholesterol ester level at 1 mg/kg/day added to chow pellets (reference value: 1379.3 mg/dl); assay type: functional, Cricetinae
Hamster [24] = assay: Toxicity in Bio F1B hamster model of diet-induced atherosclerosis assessed as adrenal free cholesterol level at 10 mg/kg/day added to chow pellets (reference value: 4.65 mg/dl); assay type: organism-based; settings: cricetinae, in vivo
Hamster [25] = assay: Antiatherosclerotic activity in Bio F1B hamster model of diet-induced atherosclerosis assessed as plasma cholesterol ester level at 3 mg/kg/day added to chow pellets (reference value: 1379.3 mg/dl); assay type: functional, Cricetinae
Hamster [26] = assay: Toxicity in Bio F1B hamster model of diet-induced atherosclerosis assessed as plasma total cholesterol level at 1 mg/kg/day added to chow pellets (reference value: 2160.1 mg/dl); assay type: organism-based; settings: cricetinae, in vivo
Hamster [27] = assay: Effect on lipid composition in Bio F1B hamster model of diet-induced atherosclerosis assessed as adrenal total cholesterol level at 30 mg/kg/day added to chow pellets (reference value: 10.54 mg/dl); assay type: functional, Cricetinae
Hamster [28] = assay: Antiatherosclerotic activity in Bio F1B hamster model of diet-induced atherosclerosis assessed as intestinal cholesterol ester level at 30 mg/kg/day added to chow pellets (reference value: 1.09 mg/dl); assay type: functional, Cricetinae
Hamster [29] = assay: Antiatherosclerotic activity in Bio F1B hamster model of diet-induced atherosclerosis assessed as intestinal free cholesterol level at 10 mg/kg/day added to chow pellets (reference value: 3.41 mg/dl); assay type: functional, Cricetinae
Hamster [30] = assay: Antiatherosclerotic activity in Bio F1B hamster model of diet-induced atherosclerosis assessed as plasma free cholesterol level at 10 mg/kg/day added to chow pellets (reference value: 780.8 mg/dl); assay type: functional, Cricetinae
Hamster [31] = assay: Antiatherosclerotic activity in Bio F1B hamster model of diet-induced atherosclerosis assessed as reduction in lipid accumulation areas in aortic arch at 30 mg/kg/day added to chow pellets by oil red O staining based assay relative to control; assay type: functional; settings: Cricetinae
Hamster [32] = assay: Antiatherosclerotic activity in Bio F1B hamster model of diet-induced atherosclerosis assessed as intestinal free cholesterol level at 1 mg/kg/day added to chow pellets (reference value: 3.41 mg/dl); assay type: functional, Cricetinae
Hamster [33] = assay: Toxicity in Bio F1B hamster model of diet-induced atherosclerosis assessed as adrenal free cholesterol level at 3 mg/kg/day added to chow pellets (reference value: 4.65 mg/dl); assay type: organism-based; settings: cricetinae, in vivo
Hamster [34] = assay: Antiatherosclerotic activity in Bio F1B hamster model of diet-induced atherosclerosis assessed as intestinal cholesterol ester level at 10 mg/kg/day added to chow pellets (reference value: 1.09 mg/dl); assay type: functional, Cricetinae
Hamster [35] = assay: Antiatherosclerotic activity in Bio F1B hamster model of diet-induced atherosclerosis assessed as reduction in lipid accumulation areas in aortic arch at 10 mg/kg/day added to chow pellets by oil red O staining based assay relative to control; assay type: functional; settings: Cricetinae

CC(C)c1cccc(C(C)C)c1NC(=O)CCCCCCCCSc1nc2ccccc2o1
Activity (Hamster [1]): 5.95 mg/dL
Activity (Hamster [2]): 10.07 mg/dL
Activity (Hamster [3]): 3.18 mg/dL
Activity (Hamster [4]): 23.62 mg/dL
Activity (Hamster [5]): 4.81 mg/dL
Activity (Hamster [6]): 801.5 mg/dL
solubility [7]: 0.03 µg/mL (≈ 0.0643 µM)
Activity (Hamster [8]): 7.65 mg/dL
AUC(0-t) at 8 h [9]: 358 ng·h/mL
Activity (Hamster [10]): 17.67 mg/dL
Activity (Hamster [11]): 2.43 mg/dL
Tmax [12]: 3 h
Activity (Hamster [13]): 1.08 mg/dL
Cmax [14]: 107 ng/mL
Activity (Hamster [15]): 4.4 mg/dL
Activity (Hamster [16]): 22.81 mg/dL
Activity (Hamster [17]): 11.52 mg/dL
Activity (Hamster [18]): 11.13 mg/dL
Activity (Hamster [19]): 0.94 mg/dL
Tmax [20]: 1 h
Activity (Hamster [21]): 799.7 mg/dL
Activity (Hamster [22]): 4.12 mg/dL
Activity (Hamster [23]): 1512.6 mg/dL
Activity (Hamster [24]): 3.5 mg/dL
Activity (Hamster [25]): 1439.6 mg/dL
Activity (Hamster [26]): 2340.8 mg/dL
Activity (Hamster [27]): 3.47 mg/dL
Activity (Hamster [28]): 0.24 mg/dL
Activity (Hamster [29]): 3.82 mg/dL
Activity (Hamster [30]): 491.9 mg/dL
inhibition in vivo at 30 mg/kg/day (Hamster [31]): 7%
Activity (Hamster [32]): 3.43 mg/dL
Activity (Hamster [33]): 4.05 mg/dL
Activity (Hamster [34]): 0.31 mg/dL
inhibition in vivo at 10 mg/kg/day (Hamster [35]): 42%
